For assay [1], the target named is T1, hNLRP3 inflammasome (Homo sapiens, UniProt Q96P20).
T1 construct: endogenous in cells; host or cells: THP-1 cells, PMA-differentiated
The experiment in a line: Agonistic effect on the expression of IL-1β in THP-1 cells after PMA-induced differentiation (HTRF). In kind it is cell-based. The conditions noted are these: IL-1β level, PMA-differentiated THP-1 cells, 6 hours. The source says:
Experimental Example 1: Agonistic Effect of the Compound of the Invention on the Expression of IL-1β in THP-1 Cells after PMA-Induced Differentiation
In this test, a HTRF (homogeneous time-resolved fluorescence) detection method was used to test the effect of the compound of the invention on the level of downstream cytokine IL-1β of NLRP3 to evaluate the agonistic effect of the compound on hNLRP3 inflammasome or hNLRP3 inflammasome pathway at a cellular level.
Reagent: RPMI 1640 (Hyclone); heat-inactivated FBS (fetal bovine serum) (Gibco); PMA (phorbol myristal acetate) (Beyotime)
Kit: IL-1β assay kit (CISIO)
1) THP-1 cells in a logarithmic growth phase were seeded in a T75 culture flask at a density of 5×10^5 cells/well, and cultured in a cell incubator at 37° C., 5% CO2 for 24 hours, and then 1 μM PMA was used to induce THP-1 suspension cells to become adherent macrophages. The medium was RPMI 1640 containing 10% heat-inactivated FBS and 0.05 mM β-mercaptoethanol.
2) The cells were induced and cultured for 24 hours. Then the adherent cells were trypsinized and centrifuged at 1000 rpm for 5 min. The supernatant was removed, and the cells were resuspended to a density of 2×10^6 cells/mL in RPMI 1640 medium containing 2% heat-inactivated FBS. 50 μL/well of cell resuspension was taken and spread on a 96-well plate such that the number of cells in each well was 1×10^5.
3) An appropriate amount of 10 mM DMSO solution of the compound to be tested was taken and diluted to a concentration of 2× test concentration with RPMI 1640 medium containing 2% heat-inactivated FBS. 50 μL/well of the dilution was added to the cells in the 96-well plate, and mixed well. The plate was placed in a cell incubator at 37° C., 5% CO2 for 6 hours. The supernatant was collected, and the level of IL-1β was measured in accordance with the instructions of the IL-1β detection kit.
4) EC50 was fitted by the GraphPad software log(agonist) vs. response—Variable slope four-parameter method.
Background: TR-FRET usually uses a lanthanide donor and a delayed reading to cut background.

The test system of assay [2] is CT26 mouse colon cancer subcutaneously transplanted tumor. The experiment in a line: In vivo efficacy on bilaterally inoculated CT26 mouse colon cancer subcutaneously transplanted tumor. Conditions: for tumor volume (mm^3) day 0 / tumor volume (mm^3) day 14: twice a week for two weeks; for tumor volume (mm^3) day 0: day 0 (grouping); for tumor volume (mm^3) day 14 / TGI (%): day 14. As to the method: Experimental Example 7: In Vivo Efficacy of the Compounds of the Invention on Bilaterally Inoculated CT26 Mouse Colon Cancer Subcutaneously Transplanted Tumor
1) CT26 mouse colon cancer cells were cultured in a monolayer in vitro. When the cells were in a logarithmic growth phase, the cells were collected by centrifugation and counted.
2) 0.1 ml of PBS resuspension containing 3×10^5 CT26 cells was inoculated subcutaneously in the bilateral shoulder blades of mice respectively. When the bilateral scapular tumors of the mice grew to a volume of about 100 mm^3, the mice were randomly divided into 4 groups according to the bilateral tumor volumes, 8 mice in each group.
3) Compound 115s was injected into the tumor at the right scapular tumor of mice at 10 μg/time, 50 μg/time, and 250 μg/time, respectively, twice a week for two consecutive weeks. The bilateral tumor volumes and the body weight of the animals were measured.
4) Tumor inhibition rate, TGI (%), was calculated based on the tumor volumes to evaluate the inhibitory effect of Compound 115s on the growth of transplanted tumors in the mice. The calculation formula was: TGI (%)=100%−(TVt−TV0)/(CVt−CV0)×100%. When the tumor was regressing, the calculation formula was: TGI (%)=100%−(TVt−TV0)/TV0×100%, wherein TV0 was the average tumor volume of the tested compound group at the time of grouping; TVt was the average tumor volume of the tested compound group at the time of measurement on the t^th day; CV0 was the average tumor volume of the vehicle group at the time of grouping; and CVt was the average tumor volume of the vehicle group at the time of measurement on the t^th day. For statistical analysis of differences between the two groups, student's t-test was used to calculate the P value.

The mark [3] stands for this setting: administration side, 10 μg/time intratumoral.
Where [4] appears, read: administration side, 50 μg/time intratumoral.
Setting [5] is: administration side, 250 μg/time intratumoral.
Setting [6] is: non-administration side, 10 μg/time intratumoral (other side).
[7] abbreviates: non-administration side, 50 μg/time intratumoral (other side).
Where [8] appears, read: non-administration side, 250 μg/time intratumoral (other side).

SMILES strings stand for the structures. Structures can show the parent of a compound that is named as a salt.

T1 sequence (Q96P20 whole entry): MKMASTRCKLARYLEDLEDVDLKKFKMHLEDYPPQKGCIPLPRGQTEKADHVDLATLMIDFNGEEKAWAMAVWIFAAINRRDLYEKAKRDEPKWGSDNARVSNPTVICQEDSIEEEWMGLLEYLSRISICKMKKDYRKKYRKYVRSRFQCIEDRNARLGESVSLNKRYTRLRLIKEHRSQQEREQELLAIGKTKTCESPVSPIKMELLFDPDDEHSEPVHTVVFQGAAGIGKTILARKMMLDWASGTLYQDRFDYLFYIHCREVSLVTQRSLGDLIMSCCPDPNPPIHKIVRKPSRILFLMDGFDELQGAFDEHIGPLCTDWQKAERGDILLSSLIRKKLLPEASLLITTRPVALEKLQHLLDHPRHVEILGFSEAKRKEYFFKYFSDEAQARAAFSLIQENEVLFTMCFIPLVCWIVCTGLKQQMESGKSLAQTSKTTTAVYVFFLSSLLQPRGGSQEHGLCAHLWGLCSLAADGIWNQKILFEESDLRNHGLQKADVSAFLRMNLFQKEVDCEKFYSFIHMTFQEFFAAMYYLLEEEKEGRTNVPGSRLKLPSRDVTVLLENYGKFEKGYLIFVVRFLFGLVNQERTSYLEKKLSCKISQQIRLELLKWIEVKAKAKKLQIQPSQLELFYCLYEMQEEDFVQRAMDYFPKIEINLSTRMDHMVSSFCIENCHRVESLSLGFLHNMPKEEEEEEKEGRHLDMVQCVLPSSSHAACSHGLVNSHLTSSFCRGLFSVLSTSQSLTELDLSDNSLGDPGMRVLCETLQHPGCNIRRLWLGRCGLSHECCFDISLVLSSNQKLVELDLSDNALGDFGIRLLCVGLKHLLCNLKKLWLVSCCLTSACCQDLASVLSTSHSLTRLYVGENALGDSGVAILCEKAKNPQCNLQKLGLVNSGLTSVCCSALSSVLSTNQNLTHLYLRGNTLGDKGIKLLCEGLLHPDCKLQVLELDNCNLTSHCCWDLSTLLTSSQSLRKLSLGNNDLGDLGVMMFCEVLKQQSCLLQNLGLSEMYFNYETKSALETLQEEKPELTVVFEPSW

For orientation: EC50 means the concentration needed to bring the measured effect to its halfway point. A low value points to a more potent agent. Turning to `COCCNc1cc(N)nc2cc(-c3ccn[nH]3)sc12` [Compound 100s, N^7-(2-methoxyethyl)-2-(1H-pyrazol-5-yl)thieno[3,2-b]pyridine-5,7-diamine hydrochloride], in assay [1], the EC50 is 0.01 µM.

As to `Nc1cc(NC2CCCC2)c2sc(-c3ccn[nH]3)cc2n1` [Compound 110s, N^7-cyclopentyl-2-(1H-pyrazol-5-yl)thieno[3,2-b]pyridine-5,7-diamine hydrochloride], the EC50 in assay [1] was 0.03 µM.

In turn, `CCC(CC)Nc1cc(N)nc2cc(-c3ccn[nH]3)sc12` [Compound 113s, N^7-(pent-3-yl)-2-(1H-pyrazol-5-yl)thieno[3,2-b]pyridine-5,7-diamine hydrochloride] gave an EC50 in assay [1] of 0.01 µM.

Take `CC(C)(CO)CNc1cc(N)nc2cc(-c3ccn[nH]3)sc12.Cl` [Compound 115s, 3-((5-amino-2-(1H-pyrazol-5-yl)thieno[3,2-b]pyridin-7-yl)amino)-2,2-dimethyl-1-propanol hydrochloride]: the “tumor volume (mm^3) day 0” value in assay [2] (setting [3]) amounted to 74.63 ± 6.26 mm^3; in assay [2] (setting [4]), 74.03 ± 4.69 mm^3; in assay [2] (setting [5]), 74.00 ± 4.41 mm^3; in assay [2] (setting [6]) it was 85.21 ± 7.40 mm^3; in assay [2] (setting [7]) it was 85.31 ± 6.01 mm^3; in assay [2] (setting [8]) it was 85.17 ± 6.28 mm^3. Further, the “tumor volume (mm^3) day 14” value in assay [2] (setting [3]) is recorded as 499.05 ± 211.28 mm^3; in assay [2] (setting [4]) it was 61.66 ± 41.15 mm^3; in assay [2] (setting [5]), 0.00 ± 0.00 mm^3; in assay [2] (setting [6]) it was 1269.99 ± 140.11 mm^3; in assay [2] (setting [7]) it was 869.87 ± 99.95 mm^3; in assay [2] (setting [8]), 462.85 ± 52.91 mm^3. The “TGI (%)” value stood at 77.46% in assay [2] (setting [3]); 144.99% in assay [2] (setting [4]); 200.00% in assay [2] (setting [5]); 38.94% in assay [2] (non-administration side, 10 μg/time); 59.57% in assay [2] (non-administration side, 50 μg/time); 80.54% in assay [2] (non-administration side, 250 μg/time). Besides, the “tumor inhibitory effect on the non-administration side tumors” value in assay [2] (intratumoral injection at the other side, in words) was “significant dose-dependent tumor inhibitory effect”. In addition, the “anti-tumor effect on the subcutaneous tumor at the administration side” value in assay [2] (intratumoral injection, compared with the vehicle group, in words) is given as “significant dose-dependent anti-tumor effect”. The “tumor inhibitory effect on bilateral CT26 subcutaneous tumors” value in assay [2] (intratumoral injection, summary in words) was “significant dose-dependent tumor inhibitory effect”.

In turn, `Nc1cc(NCC(F)F)c2sc(-c3ccn[nH]3)cc2n1` [Compound 116s, N^7-(2,2-difluoroethyl)-2-(1H-pyrazol-5-yl)thieno[3,2-b]pyridine-5,7-diamine hydrochloride] registered an EC50 in assay [1] of 0.05 µM.

Molecule `Nc1cc(NCC2CCOCC2)c2sc(-c3ccn[nH]3)cc2n1` [Compound 120s, 2-(1H-pyrazol-5-yl)-N^7-((tetrahydro-2H-pyran-4-yl)methyl)thieno[3,2-b]pyridine-5,7-diamine hydrochloride] gave an EC50 in assay [1] of 0.03 µM.

The values above are taken from US20220056043A1, “NITROGEN-CONTAINING FUSED CYCLIC COMPOUND, PREPARATION METHOD THEREFOR AND USE THEREOF” (SICHUAN KELUN-BIOTECH BIOPHARMACEUTICAL CO., LTD., priority 2019, published 2022).
